In publication PMC5218480 (PLoS ONE, 2017):

System: MV-4-11 cells
Assay: Gene expression microarray analysis (Affymetrix PrimeView) and GSEA
Assay type: cell-based, human
Set-up: RFU PODN (11730768_x_at) / Fold change /veh PODN (11730768_x_at) / RFU LINC00158 (11744669_a_at) / Fold change /veh LINC00158 (11744669_a_at) / RFU DUSP10 (11751237_a_at) / Fold change /veh DUSP10 (11751237_a_at) / RFU ID3 (11757404_x_at) / Fold change /veh ID3 (11757404_x_at) / RFU PLEKHG5 (11737974_s_at) / Fold change /veh PLEKHG5 (11737974_s_at) / RFU LRRC4B (11730491_at) / Fold change /veh LRRC4B (11730491_at) / RFU GIMAP4 (11747438_a_at) / Fold change /veh GIMAP4 (11747438_a_at) / RFU KRT8 (11758183_x_at) / Fold change /veh KRT8 (11758183_x_at) / RFU CNN1 (11734310_a_at) / Fold change /veh CNN1 (11734310_a_at) / RFU VPS37D (11726825_at) / Fold change /veh VPS37D (11726825_at) / RFU C10orf10 (11716522_x_at) / Fold change /veh C10orf10 (11716522_x_at) / RFU KIR2DL2 /// KIR2DL4 /// KIR2DL5A /// KIR2DL5B /// KIR2DS1 /// KIR2DS2 /// KIR2DS3 /// KIR2DS4 /// KIR3DL3 /// KIR3DL3 /// KIR3DS1 (11738374_at) / Fold change /veh KIR2DL2 /// KIR2DL4 /// KIR2DL5A /// KIR2DL5B /// KIR2DS1 /// KIR2DS2 /// KIR2DS3 /// KIR2DS4 /// KIR3DL3 /// KIR3DL3 /// KIR3DS1 (11738374_at) / RFU C1QL1 (11718748_at) / Fold change /veh C1QL1 (11718748_at) / RFU TMPRSS4 (11747572_a_at) / Fold change /veh TMPRSS4 (11747572_a_at) / RFU HAMP (11756126_x_at) / Fold change /veh HAMP (11756126_x_at) / RFU RNFT2 (11725882_a_at) / Fold change /veh RNFT2 (11725882_a_at) / RFU NR4A2 (11747474_a_at) / Fold change /veh NR4A2 (11747474_a_at) / RFU ABCC12 (11746883_a_at) / Fold change /veh ABCC12 (11746883_a_at) / RFU TMEM136 (11760407_x_at) / Fold change /veh TMEM136 (11760407_x_at) / RFU CLDN22 /// WWC2 (11732394_at) / Fold change /veh CLDN22 /// WWC2 (11732394_at) / RFU HLA-DPB1 (11760878_x_at) / Fold change /veh HLA-DPB1 (11760878_x_at) / RFU SPINT1 (11716480_a_at) / Fold change /veh SPINT1 (11716480_a_at) / RFU GAP43 (11754022_s_at) / Fold change /veh GAP43 (11754022_s_at) / RFU A4GNT (11735810_at) / Fold change /veh A4GNT (11735810_at) / RFU PRB3 (11715151_x_at) / Fold change /veh PRB3 (11715151_x_at) / RFU TUBB4B (11761932_at) / Fold change /veh TUBB4B (11761932_at) / RFU CAPN14 (11732068_a_at) / Fold change /veh CAPN14 (11732068_a_at) / RFU TMCC2 (11721928_a_at) / Fold change /veh TMCC2 (11721928_a_at) / RFU IRGQ (11745062_a_at) / Fold change /veh IRGQ (11745062_a_at) / RFU FAM174B (11720279_a_at) / Fold change /veh FAM174B (11720279_a_at) / RFU TMPRSS4 (11748680_a_at) / Fold change /veh TMPRSS4 (11748680_a_at) / RFU FAM212B (11763350_a_at) / Fold change /veh FAM212B (11763350_a_at) / RFU PLEKHG5 (11743358_a_at) / Fold change /veh PLEKHG5 (11743358_a_at) / RFU ZSCAN30 (11745921_a_at) / Fold change /veh ZSCAN30 (11745921_a_at) / RFU CMKLR1 (11741424_a_at) / Fold change /veh CMKLR1 (11741424_a_at) / RFU LOC101060620 /// MAPK8IP1 (11723275_at) / Fold change /veh LOC101060620 /// MAPK8IP1 (11723275_at) / RFU SPTSSB (11747773_x_at) / Fold change /veh SPTSSB (11747773_x_at) / RFU PRSS12 (11739890_at) / Fold change /veh PRSS12 (11739890_at) / RFU BIN1 (11741810_x_at) / Fold change /veh BIN1 (11741810_x_at) / RFU WNT11 (11732464_a_at) / Fold change /veh WNT11 (11732464_a_at) / RFU C10orf10 (11716521_a_at) / Fold change /veh C10orf10 (11716521_a_at) / RFU C5orf56 (11738089_at) / Fold change /veh C5orf56 (11738089_at) / RFU CYB561 (11721691_x_at) / Fold change /veh CYB561 (11721691_x_at) / RFU ANKRD19P (11752326_a_at) / Fold change /veh ANKRD19P (11752326_a_at) / RFU OR2T12 /// OR2T33 /// OR2T8 (11738714_s_at) / Fold change /veh OR2T12 /// OR2T33 /// OR2T8 (11738714_s_at) / RFU VCAN (11748164_a_at) / Fold change /veh VCAN (11748164_a_at) / RFU JSRP1 (11732532_at) / Fold change /veh JSRP1 (11732532_at) / RFU KRTAP10-11 (11738290_x_at) / Fold change /veh KRTAP10-11 (11738290_x_at) / RFU MYO3A (11730013_a_at) / Fold change /veh MYO3A (11730013_a_at) / RFU EBF3 (11725865_a_at) / Fold change /veh EBF3 (11725865_a_at) / RFU CAMK2N1 (11719241_x_at) / Fold change /veh CAMK2N1 (11719241_x_at) / RFU C5orf56 (11738088_a_at) / Fold change /veh C5orf56 (11738088_a_at) / RFU OLFML3 (11715873_a_at) / Fold change /veh OLFML3 (11715873_a_at) / RFU LOC100653217 /// NTM (11731650_a_at) / Fold change /veh LOC100653217 /// NTM (11731650_a_at) / RFU MAPK11 (11762145_a_at) / Fold change /veh MAPK11 (11762145_a_at) / RFU FIZ1 (11724087_x_at) / Fold change /veh FIZ1 (11724087_x_at) / RFU OASL (11726364_x_at) / Fold change /veh OASL (11726364_x_at) / RFU SOX15 (11748057_x_at) / Fold change /veh SOX15 (11748057_x_at) / RFU CD79A (11719716_a_at) / Fold change /veh CD79A (11719716_a_at) / RFU HIST1H1D (11736915_at) / Fold change /veh HIST1H1D (11736915_at) / RFU CASKIN2 (11723855_a_at) / Fold change /veh CASKIN2 (11723855_a_at) / RFU LOC730098 (11760151_x_at) / Fold change /veh LOC730098 (11760151_x_at) / RFU OR4N2 (11742367_at) / Fold change /veh OR4N2 (11742367_at) / RFU PRRT2 (11749266_a_at) / Fold change /veh PRRT2 (11749266_a_at) / RFU SNX32 (11753110_a_at) / Fold change /veh SNX32 (11753110_a_at) / RFU CDHR5 (11726645_a_at) / Fold change /veh CDHR5 (11726645_a_at) / RFU RCAN1 (11760418_a_at) / Fold change /veh RCAN1 (11760418_a_at) / RFU FAM167A (11723789_a_at) / Fold change /veh FAM167A (11723789_a_at) / RFU FAM26E (11764081_at) / Fold change /veh FAM26E (11764081_at) / RFU ISYNA1 (11749810_s_at) / Fold change /veh ISYNA1 (11749810_s_at) / RFU ACY1 (11761880_at) / Fold change /veh ACY1 (11761880_at) / RFU 11764098_at / Fold change /veh 11764098_at / RFU SAMD14 (11745864_x_at) / Fold change /veh SAMD14 (11745864_x_at) / RFU NPB (11741838_a_at) / Fold change /veh NPB (11741838_a_at) / RFU TMPRSS6 (11731388_a_at) / Fold change /veh TMPRSS6 (11731388_a_at) / RFU KRTAP10-2 (11738614_at) / Fold change /veh KRTAP10-2 (11738614_at) / RFU ARHGAP8 /// PRR5-ARHGAP8 (11727945_x_at) / Fold change /veh ARHGAP8 /// PRR5-ARHGAP8 (11727945_x_at) / RFU KRTAP5-7 /// NADSYN1 (11734609_at) / Fold change /veh KRTAP5-7 /// NADSYN1 (11734609_at) / RFU RASL12 (11751679_a_at) / Fold change /veh RASL12 (11751679_a_at) / RFU CDKN2B (11736163_a_at) / Fold change /veh CDKN2B (11736163_a_at) / RFU PRF1 (11729649_at) / Fold change /veh PRF1 (11729649_at) / RFU, ZNF638 /// ZNF638-IT1 / Fold change vs veh, ZNF638 /// ZNF638-IT1 / RFU, PANK3 / Fold change vs veh, PANK3 / RFU, SH3YL1 / Fold change vs veh, SH3YL1 / RFU, ZEB2 / Fold change vs veh, ZEB2 / RFU, NRIP1 / Fold change vs veh, NRIP1 / RFU, PTTG1IP / Fold change vs veh, PTTG1IP / RFU, CAPN2 / Fold change vs veh, CAPN2 / RFU, MED14 / Fold change vs veh, MED14 / RFU, SNORA58 / Fold change vs veh, SNORA58 / RFU, C1orf63 / Fold change vs veh, C1orf63 / RFU, LRRFIP1 / Fold change vs veh, LRRFIP1 / RFU, NDUFAF7 / Fold change vs veh, NDUFAF7 / RFU, SLC12A2 / Fold change vs veh, SLC12A2 / RFU, IBTK / Fold change vs veh, IBTK / RFU, ESF1 / Fold change vs veh, ESF1 / Fold change vs veh, TMEM50B / RFU, TAOK1 / Fold change vs veh, TAOK1 / RFU, ACBD3 / Fold change vs veh, ACBD3 / RFU, TMA16 / Fold change vs veh, TMA16 / RFU, RWDD3 / Fold change vs veh, RWDD3 / RFU, BCAT1 / Fold change vs veh, BCAT1 / RFU, EDEM3 / Fold change vs veh, EDEM3 / RFU, TMEM33 / Fold change vs veh, TMEM33 / RFU, WDR75 / Fold change vs veh, WDR75 / RFU, AHCTF1 / Fold change vs veh, AHCTF1 / RFU, TFRC / Fold change vs veh, TFRC / RFU, ZDHHC17 / Fold change vs veh, ZDHHC17 / RFU, NOM1 / Fold change vs veh, NOM1 / RFU, ARL8B / Fold change vs veh, ARL8B / RFU, ZBTB11 / Fold change vs veh, ZBTB11 / RFU, TAMM41 / Fold change vs veh, TAMM41 / RFU, KIAA1704 /// LOC100996395 / Fold change vs veh, KIAA1704 /// LOC100996395 / RFU, ING1 / Fold change vs veh, ING1 / RFU, TRMT61B / Fold change vs veh, TRMT61B / RFU, FUBP3 / Fold change vs veh, FUBP3 / RFU, TP53 / Fold change vs veh, TP53 / RFU, TNKS2 / Fold change vs veh, TNKS2 / RFU, ZFP14 / Fold change vs veh, ZFP14 / RFU, ACTR2 / Fold change vs veh, ACTR2 / RFU, PPP3R1 / Fold change vs veh, PPP3R1 / RFU, PIK3R1 / Fold change vs veh, PIK3R1 / RFU, HNRNPA1 / Fold change vs veh, HNRNPA1 / RFU, RNF170 / Fold change vs veh, RNF170 / RFU, ZNF28 / Fold change vs veh, ZNF28 / RFU, RNGTT / Fold change vs veh, RNGTT / RFU, OGT / Fold change vs veh, OGT / RFU, BRD1 / Fold change vs veh, BRD1 / RFU, MARS / Fold change vs veh, MARS / RFU, ZNF655 / Fold change vs veh, ZNF655 / RFU, FAHD1 / Fold change vs veh, FAHD1 / RFU, BDP1 / Fold change vs veh, BDP1 / RFU, LRRCC1 / Fold change vs veh, LRRCC1 / RFU, ARID1A / Fold change vs veh, ARID1A / RFU, ZNF146 / Fold change vs veh, ZNF146 / RFU, ZNF330 / Fold change vs veh, ZNF330 / RFU, GPN3 / Fold change vs veh, GPN3 / RFU, C9orf123 / Fold change vs veh, C9orf123 / RFU, N4BP2L2 / Fold change vs veh, N4BP2L2 / RFU, ARFIP1 / Fold change vs veh, ARFIP1 / RFU, FAM179B / Fold change vs veh, FAM179B / RFU, BCL10 / Fold change vs veh, BCL10 / RFU, UHRF1BP1L / Fold change vs veh, UHRF1BP1L / RFU, BET1 / Fold change vs veh, BET1 / RFU, CNOT2 / Fold change vs veh, CNOT2 / RFU, ZNF268 / Fold change vs veh, ZNF268 / Fold change vs veh, ZNF507 / RFU, DGCR2 / Fold change vs veh, DGCR2 / RFU, WDSUB1 / Fold change vs veh, WDSUB1 / Fold change vs veh, HSP90B1 /// MIR3652 / RFU, ADSS / Fold change vs veh, ADSS / RFU, GK / Fold change vs veh, GK / RFU, ZNF148 / Fold change vs veh, ZNF148 / RFU, TAF9 / Fold change vs veh, TAF9 / RFU, SLC1A5 / Fold change vs veh, SLC1A5 / RFU, SLMO2 / Fold change vs veh, SLMO2 / RFU, ABCC4 / Fold change vs veh, ABCC4 / RFU, LOC101060439 /// RAP1B / Fold change vs veh, LOC101060439 /// RAP1B / RFU, RFX7 / Fold change vs veh, RFX7 / RFU, GTPBP10 / Fold change vs veh, GTPBP10 / RFU, CNEP1R1 / Fold change vs veh, CNEP1R1 / RFU, BIVM-ERCC5 /// ERCC5 / Fold change vs veh, BIVM-ERCC5 /// ERCC5 / RFU, ILF3 / Fold change vs veh, ILF3 / RFU 11762660_at / Fold change /veh 11762660_at / RFU VCAN (11757783_s_at) / Fold change /veh VCAN (11757783_s_at) / RFU DDX43 (11728927_at) / Fold change /veh DDX43 (11728927_at) / RFU KRT8 (11758188_x_at) / Fold change /veh KRT8 (11758188_x_at) / RFU NKD1 (11759106_at) / Fold change /veh NKD1 (11759106_at) / RFU SRD5A1 (11742802_a_at) / Fold change /veh SRD5A1 (11742802_a_at) / RFU TPSAB1 /// TPSB2 (11721975_s_at) / Fold change /veh TPSAB1 /// TPSB2 (11721975_s_at) / RFU GSTM3 (11746129_a_at) / Fold change /veh GSTM3 (11746129_a_at) / RFU IL23R (11737362_x_at) / Fold change /veh IL23R (11737362_x_at) / RFU TMEM51 (11727254_a_at) / Fold change /veh TMEM51 (11727254_a_at) / RFU PIWIL2 (11732686_x_at) / Fold change /veh PIWIL2 (11732686_x_at) / RFU ORM1 (11744905_x_at) / Fold change /veh ORM1 (11744905_x_at) / RFU CCDC152 (11743942_at) / Fold change /veh CCDC152 (11743942_at) / RFU ECM1 (11717891_a_at) / Fold change /veh ECM1 (11717891_a_at) / RFU IL23R (11748794_a_at) / Fold change /veh IL23R (11748794_a_at) / RFU TNFAIP8L3 (11732012_x_at) / Fold change /veh TNFAIP8L3 (11732012_x_at) / RFU MBOAT4 (11741988_at) / Fold change /veh MBOAT4 (11741988_at) / RFU 11764193_at / Fold change /veh 11764193_at / RFU TMEM53 (11763286_at) / Fold change /veh TMEM53 (11763286_at) / RFU MAGEB2 (11727129_at) / Fold change /veh MAGEB2 (11727129_at) / RFU TMEM200A (11744735_a_at) / Fold change /veh TMEM200A (11744735_a_at) / RFU CCDC152 (11751479_a_at) / Fold change /veh CCDC152 (11751479_a_at) / RFU FAM211A (11726209_a_at) / Fold change /veh FAM211A (11726209_a_at) / RFU RGS16 (11746705_a_at) / Fold change /veh RGS16 (11746705_a_at) / RFU VCAN (11755009_s_at) / Fold change /veh VCAN (11755009_s_at) / RFU RHOB (11743442_s_at) / Fold change /veh RHOB (11743442_s_at) / RFU RGS16 (11720943_a_at) / Fold change /veh RGS16 (11720943_a_at) / RFU RGS16 (11720944_at) / Fold change /veh RGS16 (11720944_at) / RFU, VPS4B / Fold change vs veh, VPS4B / RFU, CREB1 / Fold change vs veh, CREB1 / RFU, DNAJC13 / Fold change vs veh, DNAJC13 / RFU, GNAQ / Fold change vs veh, GNAQ / RFU, CDK5R1 / Fold change vs veh, CDK5R1 / RFU, ZRANB3 / Fold change vs veh, ZRANB3 / RFU, CUL4A / Fold change vs veh, CUL4A / RFU, CCNY / Fold change vs veh, CCNY / RFU, UFL1 / Fold change vs veh, UFL1 / RFU, COG3 / Fold change vs veh, COG3 / RFU, DIAPH2 / Fold change vs veh, DIAPH2 / RFU, SKA2 / Fold change vs veh, SKA2 / RFU, AFF3 / Fold change vs veh, AFF3 / RFU, LMF1 / Fold change vs veh, LMF1 / RFU, IPO11 / Fold change vs veh, IPO11 / RFU, DFFB / Fold change vs veh, DFFB / RFU, FOXP1 / Fold change vs veh, FOXP1 / RFU, CARD8 / Fold change vs veh, CARD8 / RFU, STRN3 / Fold change vs veh, STRN3 / RFU, ADK / Fold change vs veh, ADK / RFU, RASSF2 / Fold change vs veh, RASSF2 / RFU, WIPF1 / Fold change vs veh, WIPF1 / RFU, LARP1B / Fold change vs veh, LARP1B / RFU, RASA1 / Fold change vs veh, RASA1 / RFU, RB1 / Fold change vs veh, RB1 / RFU, PPFIA1 / Fold change vs veh, PPFIA1 / RFU, MAT2A / Fold change vs veh, MAT2A / RFU, CCT5 / Fold change vs veh, CCT5 / RFU, WDR92 / Fold change vs veh, WDR92 / RFU, CUX1 / Fold change vs veh, CUX1 / RFU, TTC7A / Fold change vs veh, TTC7A / RFU, TMEM135 / Fold change vs veh, TMEM135 / RFU, DEPTOR / Fold change vs veh, DEPTOR / RFU, CPM / Fold change vs veh, CPM / RFU, DNAJB6 / Fold change vs veh, DNAJB6 / RFU, CACNA2D3 / Fold change vs veh, CACNA2D3 / RFU, DTX4 / Fold change vs veh, DTX4 / RFU, TFCP2 / Fold change vs veh, TFCP2 / RFU, GMCL1 /// GMCL1P1 / Fold change vs veh, GMCL1 /// GMCL1P1 / RFU, AEBP2 / Fold change vs veh, AEBP2 / RFU, SNHG1 /// SNORD22 /// SNORD25 /// SNORD26 /// SNORD27 /// SNORD28 /// SNORD29 /// SNORD31 / Fold change vs veh, SNHG1 /// SNORD22 /// SNORD25 /// SNORD26 /// SNORD27 /// SNORD28 /// SNORD29 /// SNORD31 / Fold change (Aza/veh), C12orf56 (ProbeSet 11735607_a_at) / Fold change (ACY-1035/veh), C12orf56 (ProbeSet 11735607_a_at) / Fold change (Aza/veh), FGFR1OP (ProbeSet 11751329_s_at) / Fold change (ACY-1035/veh), FGFR1OP (ProbeSet 11751329_s_at) / Fold change (Aza/veh), VPS36 (ProbeSet 11739960_a_at) / Fold change (ACY-1035/veh), VPS36 (ProbeSet 11739960_a_at) / RFU SYPL1 (11715823_x_at) / Fold change /veh SYPL1 (11715823_x_at) / RFU IGFBP7 (11715501_s_at) / Fold change /veh IGFBP7 (11715501_s_at) / RFU REEP3 (11722064_at) / Fold change /veh REEP3 (11722064_at) / RFU IGLL1 (11728026_x_at) / Fold change /veh IGLL1 (11728026_x_at): dose or concentration left out as unconfirmed
Details: MV-4-11 cells, 48 hours

SMILES: Nc1ncn([C@@H]2O[C@H](CO)[C@@H](O)[C@H]2O)c(=O)n1 [azacitidine]
- RFU OR2T12 /// OR2T33 /// OR2T8 (11738714_s_at): 6.40 RFU
